Measured values as given in the supplement of paper PMC10307832.

Assays:
Test in all cases: relative viability (nuclei count vs DMSO), 5 days (fraction); higher = more cells survive
201T = system: 201T
Summary of the method: (§1)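 For relative viability, nuclei counts in treated wells were divided by those in vehicle wells. Lung cancer cell lines had been pin-tool dosed in 1536-well plates the day after seeding and cultured for 5 days, then fixed and stained in one step (final 0.05% Triton X-100, 1% formaldehyde, 1 ug/ml Hoechst) and imaged at 4×. Doses were one drug alone or a fixed anchor-drug dose plus five library-drug doses (not always all listed) in √10 steps, and values are duplicate-plate medians.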

COR-L 105 = system: COR-L 105
Summary of the method: as §1

ChaGo-K-1 = system: ChaGo-K-1
Summary of the method: as §1

EKVX = system: EKVX
Summary of the method: as §1

H3255 = system: H3255
Summary of the method: as §1

HARA = system: HARA
Summary of the method: as §1

HCC-827 = system: HCC-827
Summary of the method: as §1

HOP-62 = system: HOP-62
Summary of the method: as §1

LCLC-103H = system: LCLC-103H
Summary of the method: as §1

LOU-NH91 = system: LOU-NH91
Summary of the method: as §1

NCI-H1975 = system: NCI-H1975
Summary of the method: as §1

NCI-H2126 = system: NCI-H2126
Summary of the method: as §1

NCI-H2228 = system: NCI-H2228
Summary of the method: as §1

NCI-H23 = system: NCI-H23
Summary of the method: as §1

NCI-H2405 = system: NCI-H2405
Summary of the method: as §1

NCI-H3122 = system: NCI-H3122
Summary of the method: as §1

NCI-H596 = system: NCI-H596
Summary of the method: as §1

NCI-H650 = system: NCI-H650
Summary of the method: as §1

NCI-H661 = system: NCI-H661
Summary of the method: as §1

NCI-H727 = system: NCI-H727
Summary of the method: as §1

PC-3 [JPC-3] = system: PC-3 [JPC-3]
Summary of the method: as §1

SK-LU-1 = system: SK-LU-1
Summary of the method: as §1

SW 900 = system: SW 900
Summary of the method: as §1

Cc1cn(-c2cc(NC(=O)c3ccc(C)c(Nc4nccc(-c5cccnc5)n4)c3)cc(C(F)(F)F)c2)cn1 [Nilotinib] + N=C(N)NC(=N)NCCc1ccccc1 [Phenformin] (partner 250 µM)
relative viability (201T; first compound 0.003162 µM): 0.48 | relative viability (201T; first compound 0.01 µM): 0.454 | relative viability (201T; first compound 0.03162 µM): 0.477 | relative viability (201T; first compound 0.1 µM): 0.491 | relative viability (COR-L 105; first compound 0.001 µM): 0.428 | relative viability (COR-L 105; first compound 0.003162 µM): 0.47 | relative viability (COR-L 105; first compound 0.01 µM): 0.581 | relative viability (COR-L 105; first compound 0.03162 µM): 0.409 | relative viability (COR-L 105; first compound 0.1 µM): 0.438 | relative viability (ChaGo-K-1; first compound 0.001 µM): 0.469 | relative viability (ChaGo-K-1; first compound 0.003162 µM): 0.442 | relative viability (ChaGo-K-1; first compound 0.01 µM): 0.473 | relative viability (ChaGo-K-1; first compound 0.03162 µM): 0.394 | relative viability (ChaGo-K-1; first compound 0.1 µM): 0.315 | relative viability (EKVX; first compound 0.001 µM): 0.231 | relative viability (EKVX; first compound 0.003162 µM): 0.232 | relative viability (EKVX; first compound 0.01 µM): 0.248 | relative viability (EKVX; first compound 0.03162 µM): 0.214 | relative viability (EKVX; first compound 0.1 µM): 0.236 | relative viability (H3255; first compound 0.001 µM): 0.382 | relative viability (H3255; first compound 0.003162 µM): 0.303 | relative viability (H3255; first compound 0.03162 µM): 0.403 | relative viability (H3255; first compound 0.1 µM): 0.407 | relative viability (HARA; first compound 0.001 µM): 0.402 | relative viability (HARA; first compound 0.003162 µM): 0.555 | relative viability (HARA; first compound 0.01 µM): 0.613 | relative viability (HARA; first compound 0.03162 µM): 0.29 | relative viability (HARA; first compound 0.1 µM): 0.322 | relative viability (HCC-827; first compound 0.003162 µM): 0.436 | relative viability (HCC-827; first compound 0.01 µM): 0.384 | relative viability (HCC-827; first compound 0.03162 µM): 0.438 | relative viability (HCC-827; first compound 0.1 µM): 0.384 | relative viability (HOP-62; first compound 0.001 µM): 0.512 | relative viability (HOP-62; first compound 0.003162 µM): 0.706 | relative viability (HOP-62; first compound 0.01 µM): 0.771 | relative viability (HOP-62; first compound 0.03162 µM): 0.444 | relative viability (HOP-62; first compound 0.1 µM): 0.441 | relative viability (LCLC-103H; first compound 0.001 µM): 0.326 | relative viability (LCLC-103H; first compound 0.003162 µM): 0.307 | relative viability (LCLC-103H; first compound 0.01 µM): 0.338 | relative viability (LCLC-103H; first compound 0.03162 µM): 0.333 | relative viability (LCLC-103H; first compound 0.1 µM): 0.288 | relative viability (LOU-NH91; first compound 0.001 µM): 0.752 | relative viability (LOU-NH91; first compound 0.003162 µM): 0.736 | relative viability (LOU-NH91; first compound 0.01 µM): 0.861 | relative viability (LOU-NH91; first compound 0.03162 µM): 0.663 | relative viability (LOU-NH91; first compound 0.1 µM): 0.75 | relative viability (NCI-H1975; first compound 0.001 µM): 0.406 | relative viability (NCI-H1975; first compound 0.003162 µM): 0.438 | relative viability (NCI-H1975; first compound 0.01 µM): 0.413 | relative viability (NCI-H1975; first compound 0.03162 µM): 0.363 | relative viability (NCI-H1975; first compound 0.1 µM): 0.378 | relative viability (NCI-H2126; first compound 0.001 µM): 0.546 | relative viability (NCI-H2126; first compound 0.003162 µM): 0.535 | relative viability (NCI-H2126; first compound 0.01 µM): 0.538 | relative viability (NCI-H2126; first compound 0.03162 µM): 0.534 | relative viability (NCI-H2126; first compound 0.1 µM): 0.562 | relative viability (NCI-H2228; first compound 0.003162 µM): 0.388 | relative viability (NCI-H2228; first compound 0.01 µM): 0.383 | relative viability (NCI-H2228; first compound 0.03162 µM): 0.259 | relative viability (NCI-H2228; first compound 0.1 µM): 0.278 | relative viability (NCI-H23; first compound 0.001 µM): 0.706 | relative viability (NCI-H23; first compound 0.003162 µM): 0.58 | relative viability (NCI-H23; first compound 0.01 µM): 0.891 | relative viability (NCI-H23; first compound 0.03162 µM): 0.624 | relative viability (NCI-H23; first compound 0.1 µM): 0.594 | relative viability (NCI-H2405; first compound 0.001 µM): 0.381 | relative viability (NCI-H2405; first compound 0.003162 µM): 0.357 | relative viability (NCI-H2405; first compound 0.01 µM): 0.397 | relative viability (NCI-H2405; first compound 0.03162 µM): 0.356 | relative viability (NCI-H2405; first compound 0.1 µM): 0.346 | relative viability (NCI-H3122; first compound 0.001 µM): 0.36 | relative viability (NCI-H3122; first compound 0.003162 µM): 0.375 | relative viability (NCI-H3122; first compound 0.01 µM): 0.341 | relative viability (NCI-H3122; first compound 0.03162 µM): 0.352 | relative viability (NCI-H3122; first compound 0.1 µM): 0.309 | relative viability (NCI-H596; first compound 0.001 µM): 0.588 | relative viability (NCI-H596; first compound 0.003162 µM): 0.697 | relative viability (NCI-H596; first compound 0.01 µM): 0.909 | relative viability (NCI-H596; first compound 0.03162 µM): 0.475 | relative viability (NCI-H596; first compound 0.1 µM): 0.432 | relative viability (NCI-H650; first compound 0.001 µM): 0.444 | relative viability (NCI-H650; first compound 0.003162 µM): 0.428 | relative viability (NCI-H650; first compound 0.01 µM): 0.447 | relative viability (NCI-H650; first compound 0.03162 µM): 0.38 | relative viability (NCI-H650; first compound 0.1 µM): 0.397 | relative viability (NCI-H661; first compound 0.001 µM): 0.307 | relative viability (NCI-H661; first compound 0.003162 µM): 0.268 | relative viability (NCI-H661; first compound 0.03162 µM): 0.279 | relative viability (NCI-H661; first compound 0.1 µM): 0.288 | relative viability (NCI-H727; first compound 0.001 µM): 0.579 | relative viability (NCI-H727; first compound 0.003162 µM): 0.577 | relative viability (NCI-H727; first compound 0.01 µM): 0.419 | relative viability (NCI-H727; first compound 0.03162 µM): 0.379 | relative viability (NCI-H727; first compound 0.1 µM): 0.346 | relative viability (PC-3 [JPC-3]; first compound 0.001 µM): 0.463 | relative viability (PC-3 [JPC-3]; first compound 0.003162 µM): 0.49 | relative viability (PC-3 [JPC-3]; first compound 0.01 µM): 0.475 | relative viability (PC-3 [JPC-3]; first compound 0.03162 µM): 0.443 | relative viability (PC-3 [JPC-3]; first compound 0.1 µM): 0.482 | relative viability (SK-LU-1; first compound 0.001 µM): 0.47 | relative viability (SK-LU-1; first compound 0.003162 µM): 0.455 | relative viability (SK-LU-1; first compound 0.01 µM): 0.597 | relative viability (SK-LU-1; first compound 0.03162 µM): 0.402 | relative viability (SK-LU-1; first compound 0.1 µM): 0.306 | relative viability (SW 900; first compound 0.001 µM): 0.605 | relative viability (SW 900; first compound 0.003162 µM): 0.634 | relative viability (SW 900; first compound 0.01 µM): 0.612 | relative viability (SW 900; first compound 0.03162 µM): 0.44 | relative viability (SW 900; first compound 0.1 µM): 0.408
